From patent publication US4599352A, “Antineoplastic platinum (IV) complexes and compositions” (priority 1984, dated 1986)

Legend:
[1] = system: IP L1210; assay: Activity against IP-implanted L1210 leukemia sensitive to cisplatin, 30 day test (Table 3); format: in vivo, Female CD2Fl mice
Description: (§1) Biological properties of the compounds of the present invention were determined following the protocol described in Cancer Chemotherapy Reports, Vol. 3, No. 3, 1972 which report is incorporated herein by reference.
(§2) Other known mechanisms of resistance for other classes of agents, such as gene amplification or target enzyme change or amplication, also need to be explored. The experiments summarized in Table 3 were conducted at the same time against both sublines using the same drug preparations. […] These experiments were repeated in a second laboratory as documented in Table 4. However, in these experiments the animals were held for 60 rather than 30 days to evaluate whether or not long-term survivors are produced after drug treatment in a more challenging setting.
(§3) This experiment (A8-00005 3LE31) was conducted at the Southern Research Institute, Birmingham, Ala. under the supervision of Dr. Daniel Griswold. The protocols were the same as those published previously (Geran et al., Cancer Chemotherapy Reports 3: No. 2, 1972 [Attachment 11]). 10^5 cells were implanted intraperitoneally in CD2Fl male mice on Day 0. Drug treatments were given intraperitoneally as single injections at the doses indicated on Days 1, 5 and 9 after tumor implantation. The diluent was saline except for NSC-271674 where 5% sodium bicarbonate was used. All drugs were prepared fresh on the day of injection, and all were administered in solution. Median survival times for both control and drug-treated mice were determined and expressed as a percentage (% T/C). Body weights were determined on Day 5 and expressed as a weight difference (body weight of the drug-treated animals minus that of the control animals in grams) (T-C). The diluent control animals lived a median of 8.4 days and gained 1.9 grams by Day 5 in this experiment. All animals, including Day 30 survivors, were used in the calculation of median survival times. The log10 change in tumor burden refers to the net log change in viable tumor cell population at the end of therapy (Rx) as compared to the start of therapy; e.g., a […] means that there was a […] and a 3 log change means there was a 1000-fold increase in tumor burden at the end of therapy. The tumor burden at the start of therapy was about 6.1×10^5 cells in this experiment.
These experiments (A8-00008 3LE31 and A8-00001 3DP31) were conducted concurrently at the Southern Research Institute, Birmingham, Ala. under the supervision of Dr. Daniel Griswold. See Table 4 for experimental details. The diluent control animals bearing L1210 leukemia lived a median of 8.6 days and gained 1.3 grams by Day 5. […] Female CD2Fl mice were used for these experiments.

[2] = system: IP L1210/Cisplatin; assay: Activity against IP-implanted L1210/Cisplatin leukemia resistant to cisplatin, 30 day test (Table 3); format: in vivo, Female CD2Fl mice
Description: as §1, §2
This experiment (A8-00005 3LE31) was conducted at the Southern Research Institute, Birmingham, Ala. under the supervision of Dr. Daniel Griswold. The protocols were the same as those published previously (Geran et al., Cancer Chemotherapy Reports 3: No. 2, 1972 [Attachment 11]). 10^5 cells were implanted intraperitoneally in CD2Fl male mice on Day 0. Drug treatments were given intraperitoneally as single injections at the doses indicated on Days 1, 5 and 9 after tumor implantation. The diluent was saline except for NSC-271674 where 5% sodium bicarbonate was used. All drugs were prepared fresh on the day of injection, and all were administered in solution. Median survival times for both control and drug-treated mice were determined and expressed as a percentage (% T/C). Body weights were determined on Day 5 and expressed as a weight difference (body weight of the drug-treated animals minus that of the control animals in grams) (T-C). The diluent control animals lived a median of 8.4 days and gained 1.9 grams by Day 5 in this experiment. All animals, including Day 30 survivors, were used in the calculation of median survival times. The log10 change in tumor burden refers to the net log change in viable tumor cell population at the end of therapy (Rx) as compared to the start of therapy; e.g., a […] means that there was a […] and a 3 log change means there was a 1000-fold increase in tumor burden at the end of therapy. The tumor burden at the start of therapy was about 6.1×10^5 cells in this experiment. […]

[3] = system: IP-Implanted L1210 Leukemia; assay: Dose-response against IP-implanted L1210 leukemia, IP treatment Days 1, 5 and 9, 30-day test (Table 2); format: in vivo, CD2Fl male mice
Description: as §1, §3

With [Cl][Pt-2]1([Cl])([Cl])([Cl])[NH2+][C@@H]2CCCC[C@H]2[NH2+]1 [trans (l), (1R,2R)-Tetrachloro-trans-1,2-cyclohexanediammine platinum (IV)] the “30 Day Survivors/Total” value ([1]; 1 mg/kg/dose) was 0/6, the “Approx. Log10 Change in Tumor Burden at End of RX” value ([1]; 1 mg/kg/dose) was about 2.5 log10 and the “Median % T/C” value ([1]; 1 mg/kg/dose) was 143%. For the same compound, the “30 Day Survivors/Total” value ([1]; 2 mg/kg/dose) was 1/6, the “Approx. Log10 Change in Tumor Burden at End of RX” value ([1]; 2 mg/kg/dose) was about -0.4 log10 and the “Median % T/C” value ([1]; 2 mg/kg/dose) was 197%. For the same compound, the “30 Day Survivors/Total” value ([1]; 4 mg/kg/dose) was 2/6, the “Approx. Log10 Change in Tumor Burden at End of RX” value ([1]; 4 mg/kg/dose) was about -5.9 log10 and the “Median % T/C” value ([1]; 4 mg/kg/dose) was 313%. For the same compound, the “30 Day Survivors/Total” value ([1]; 8 mg/kg/dose) was 4/6, the “Approx. Log10 Change in Tumor Burden at End of RX” value ([1]; 8 mg/kg/dose) was about -5.9 log10 and the “Median % T/C” value ([1]; 8 mg/kg/dose) was 348%. The “30 Day Survivors/Total” value ([1]; 16 mg/kg/dose) was 0/6, the “Median % T/C” value ([1]; 16 mg/kg/dose) was 93% and the “30 Day Survivors/Total” value ([2]; 1 mg/kg/dose) was 0/6. For the same compound, the “Approx. Log10 Change in Tumor Burden at End of RX” value ([2]; 1 mg/kg/dose) was about 2.8 log10, the “Median % T/C” value ([2]; 1 mg/kg/dose) was 118% and the “30 Day Survivors/Total” value ([2]; 2 mg/kg/dose) was 0/6. The “Approx. Log10 Change in Tumor Burden at End of RX” value ([2]; 2 mg/kg/dose) was about 2.5 log10, the “Median % T/C” value ([2]; 2 mg/kg/dose) was 137% and the “30 Day Survivors/Total” value ([2]; 4 mg/kg/dose) was 5/6. For the same compound, the “Approx. Log10 Change in Tumor Burden at End of RX” value ([2]; 4 mg/kg/dose) was about -5.9 log10, the “Median % T/C” value ([2]; 4 mg/kg/dose) was 322% and the “30 Day Survivors/Total” value ([2]; 8 mg/kg/dose) was 5/6. For the same compound, the “Approx. Log10 Change in Tumor Burden at End of RX” value ([2]; 8 mg/kg/dose) was about -5.9 log10, the “Median % T/C” value ([2]; 8 mg/kg/dose) was 322% and the “30 Day Survivors/Total” value ([2]; 16 mg/kg/dose) was 0/6. The “Approx. Log10 Change in Tumor Burden at End of RX” value ([2]; 16 mg/kg/dose) was about 3.1 log10, the “Median % T/C” value ([2]; 16 mg/kg/dose) was 89% and the “30-Day Survivors/Total” value ([3]; 1 mg/kg/dose IP) was 0/6. The “Approx. Log10 Change in Tumor Burden at End of Rx” value ([3]; 1 mg/kg/dose IP) was about 2.7 log10, the “Body Weight Difference” value ([3]; 1 mg/kg/dose IP) was -0.4 Grams and the “Median % T/C” value ([3]; 1 mg/kg/dose IP) was 134%. The “30-Day Survivors/Total” value ([3]; 2 mg/kg/dose IP) was 0/6, the “Approx. Log10 Change in Tumor Burden at End of Rx” value ([3]; 2 mg/kg/dose IP) was about 1.7 log10 and the “Body Weight Difference” value ([3]; 2 mg/kg/dose IP) was -0.9 Grams. The “Median % T/C” value ([3]; 2 mg/kg/dose IP) was 170%, the “30-Day Survivors/Total” value ([3]; 4 mg/kg/dose IP) was 2/6 and the “Approx. Log10 Change in Tumor Burden at End of Rx” value ([3]; 4 mg/kg/dose IP) was about -2.8 log10. For the same compound, the “Body Weight Difference” value ([3]; 4 mg/kg/dose IP) was -1.2 Grams, the “Median % T/C” value ([3]; 4 mg/kg/dose IP) was 238% and the “30-Day Survivors/Total” value ([3]; 8 mg/kg/dose IP) was 1/6. The “Approx. Log10 Change in Tumor Burden at End of Rx” value ([3]; 8 mg/kg/dose IP) was about -5.7 log10, the “Body Weight Difference” value ([3]; 8 mg/kg/dose IP) was -2.5 Grams and the “Median % T/C” value ([3]; 8 mg/kg/dose IP) was 319%. The “Body Weight Difference” value ([3]; 8 mg/kg/dose IP, listed as trans l) was “less than -4 Grams”, the “30-Day Survivors/Total” value ([3]; 16 mg/kg/dose IP) was 0/6 and the “Approx. Log10 Change in Tumor Burden at End of Rx” value ([3]; 16 mg/kg/dose IP) was about 3.0 log10. The “Body Weight Difference” value ([3]; 16 mg/kg/dose IP) was -3.5 Grams, the “Median % T/C” value ([3]; 16 mg/kg/dose IP) was 119% and the “Optimal dose (dose producing best therapeutic response)” value ([3]; day 1, 5 and 9 schedule) was 8 mg/kg/injection.
